Experimental findings from patent EP1438962A1, “DRUGS COMPRISING COMBINATION OF TRIAZASPIRO 5,5 U NDECANE DERIVATIVE WITH CYTOCHROME P450 ISOZYME 3A4 INHIBITOR AND/OR P−GLYCOPROTEIN INHIBITOR” (ONO PHARMACEUTICAL CO., LTD., priority 2001, dated 2003) are described below.

Series [1] in a line: Plasma concentration after intravenous administration in rat in the presence of CYP 3A4 inhibitor. The note with it: male SD rats, test compound 3 mg/kg intravenously; for AUC increase in the presence of ketoconazole versus absence: ketoconazole 50 mg/kg intraperitoneally; for AUC at 4 h: rat, in vivo, iv, 3 mg/kg. The series is classed as in vivo. How it is done:
Ketoconazole (50 mg/kg), an inhibitor against CYP 3A4, was intraperitoneally administered to male SD rats. One hour thereafter, the test compound (3 mg/kg) was intravenously administered. After 2, 5, 15, 30, 60, 120 and 240 minutes from the administration of the test compound, blood was collected from the rat jugular vein and centrifuged at 3,000 rpm for 10 minutes to obtain plasma. To 150 µL of the resulting plasma were added 5 ng of 2-[4-[4-(2-methoxyphenyl)-1-piperazinyl]butylamino]-5-ethoxycarbonyl-4,6-dimethylpyrimidine trihydrochloride as an internal standard, proteins were removed therefrom using ethanol and a plasma concentration of the test compound was measured by high-performance liquid chromatography. From the resulting plasma concentration of the test compound, the area under the curve of plasma concentration vs. time (AUC, µg·min/mL) was calculated.

For the next series, the system named is CYP 3A4. Description: Metabolic reaction in pooled human liver microsome with or without the CYP 3A4 inhibitor ketoconazole. The series is classed as in vitro ADME. The note with it: 1 µmol/L test compound, 37°C, after 60 minutes; for Residual rate (%) Ketoconazole (+): ketoconazole 1 µmol/L; for Residual rate (%) Ketoconazole (-): without ketoconazole. The source says: Metabolic reaction of a test compound in pooled human liver microsome (Zenotec) in the presence of a specific inhibitor for each CYP molecular species was investigated and the CYP molecular species participating in the metabolism was estimated from the effect of each inhibitor.
The following inhibitors were used as the specific inhibitors for CYP molecular species:
A mixed solution containing 100 mmol/L of a phosphate buffer (pH 7.4), 0.05 mmol/L disodium ethylenediaminetetraacetate, 5 mmol /L magnesium chloride, 1 µmol/L of a test compound, 0.2 mg/L of human liver microsome (8 mg/L only for the measurement of a metabolism inhibiting rate by CYP 2C19) and each inhibitor (each of the numerals being the final concentration) was pre-incubated at 37°C, and then 2 mmol/L NADPH was added thereto to start the reaction. Immediately thereafter and after 60 minutes, 100 µL. of the sample was collected. The collected sample was immediately added to 2 mL of diethyl ether containing 400 µL of distilled water and 0.1 µg/L of an internal standard substance, followed by stirring, and the reaction was stopped. After a centrifugal treatment (2,000 rpm for 3 minutes), diethyl ether which was an upper layer was collected and dried in vacuo. The residue was dissolved in 150 µL of 0.01% TFA-80% acetonitrile and 40 µL thereof was subjected to a measurement. In this test, no quantitative determination was conducted but the residual rate to the concentration of the compound immediately after starting the reaction was determined from the area ratio in liquid chromatography/tandem mass analysis (LC/MS/MS) chromatogram.
For orientation: Liver microsomes are vesicles of endoplasmic reticulum, rich in cytochrome P450 enzymes.

Series [2] in a line: Plasma concentration upon oral administration to rats in the presence of CYP 3A4 inhibitor. The series is classed as in vivo. The note with it: male SD rats, test compound 30 mg/kg orally, ketoconazole 50 mg/kg intraperitoneally one hour before. How it is done: Ketoconazole (50 mg/kg), a CYP 3A4 inhibitor, was intraperitoneally administered to male SD rats. One hour thereafter, 30 mg/kg of the test compound was orally administered. After 15, 30, 60, 120, 240 and 360 minutes from administration of the test compound, blood was collected from the rat jugular vein and centrifuged at 3,000 rpm for 10 minutes to give plasma. To 150 µL of the resulting plasma were added 5 ng of 2-[4-[4-(2-methoxyphenyl)-1-piperazinyl]butyl-amino]-5-ethoxycarbonyl-4,6-dimethylpyrimidine trihydrochloride, proteins were removed therefrom using ethanol and plasma concentration of the test compound was measured by high-performance liquid chromatography. From the concentration of the test compound in the resulting plasma, the area under curve of plasma concentration vs. time (AUC, µg•min/mL) was calculated.

A short description of series [3]: Plasma concentration upon oral administration to rats in the presence of an HIV protease inhibitor. The series is classed as in vivo. Particulars: male SD rats. The procedure:
Amprenavir, nelfinavir, ritonavir or saquinavir (10 mg/kg) which is an HIV protease inhibitor and 10 mg/kg of the test compound were orally administered to male SD rats at the same time. After 15, 30, 60, 120, 240 and 360 minutes from the administration of the test compound, blood was collected from the rat jugular vein and centrifuged at 3,000 rpm for 10 minutes to give plasma. To 200 µL of the resulting plasma were added 50 ng of (3S)-1-butyl-2,5-dioxo-3-(2-methylpropyl)-9-)4-phenyloxyphenylmethyl)-1,4,9-triazaspiro[5.5]undecane as an internal standard. To this were added 300 µL of distilled water and 2,000 µL of diethyl ether, followed by well stirring, and the diethyl ether layer recovered therefrom was dried in vacuo. The dried substance was dissolved in 150 µL of a 50% acetonitrile solution containing 0.005% trifluoroacetic acid and subjected to a liquid chromatography/tandem mass analysis (LC/MS/MS) method to measure a plasma concentration of the test compound. From the concentration of the test compound in the resulting plasma, the area under curve of plasma concentration vs. time (AUC, µg·min/mL) was calculated.

Series [4] deals with Human MDR1 expressed cells (LLC-GA-5-COL 150). Description: Membrane permeability of P-gp expression cells. The class given is in vitro ADME. The note with it: COL 150 cells, CsA (-), compound 10 µM. The procedure:
(§1) Human MDR1 expressed cells (LLC-GA-5-COL 150) and parent cells thereof (LLC-PK 1) were incubated until arriving confluent in a 12-well transwell plate to prepare a single-layer membrane. Compound 75(54) was adjusted to 10 µM using a buffer for the measurement (M 199, 26.2 mM NaHCO3, 10% FBS, 0.03% L-glutamine; pH 7.4). In measuring the membrane permeability from lumen to blood vessel, the drug solution was loaded to the lumen while, in measuring the membrane permeability from blood vessel to lumen, it was loaded to the blood vessel and incubation was carried out under conditions at 37°C, 5% CO2 and relative humidity of 90%. After a certain period, the sample solution was collected and, in order to keep each volume, a buffer for the measurement was supplemented to an extent of the collected volume. Similarly, membrane permeability of Compound 75(54) was observed as well in the presence of cyclosporine A (abbreviated as CsA; final concentration: 10 µM) which is an inhibitor for P-gp. The measurement was carried out 3 times. All samples were evaluated by means of LS/MS/MS.

The subject of series [5] is parent cells thereof (LLC-PK 1). Description: Membrane permeability of parent cells. The class given is in vitro ADME. Particulars: PK 1 cells, CsA (-), compound 10 µM. The procedure:
as §1

The subject of another series is Caco-2 cells. As to the kind of experiment: Permeability of Caco-2 in the presence of P-gp inhibitor. The series is classed as in vitro ADME. The note with it: drug 10 µM. How it is done: Caco-2 cells were incubated in a 12-well transwell place on a collagen-coated porous polycarbonate membrane until arriving confluent to prepare a single-layer membrane of Caco-2 cells. The single-layer membrane was preincubated for 30 minutes in a buffer for the measurement (a Hanks buffer containing 10 mM HEPES and 15 mM glucose; pH 7.0 ± 0.2) to which d-α-tocopheryl polyethylene glycol 1000 succinate, a P-gp inhibitor, was added. The drug concentration was adjusted to 10 µM by a buffer for the measurement. In measuring the membrane permeability from lumen to blood vessel, the drug solution was loaded to the lumen while, in measuring the membrane permeability from blood vessel to lumen, it was loaded to the blood vessel and incubation was carried out under conditions at 37°C, 5% CO2 and relative humidity of 90%. After 1 and 2 hours from the administration of the drug, 200 µL of the buffer for the measurement containing the drug solution were recovered and substituted with a new buffer for the measurement. The measurement was carried out 2 times. Membrane permeability in a cell-free state was measured and used as a blank. As a control, permeability of Lucifer Yellow was measured. All samples were evaluated by LC/MS. A permeation coefficient (Papp) was calculated according to the following equation. Papp = (dc / dt) • Vr / (A • C0 ) [formula]
In the equation, dc/dt is a permeation rate after lag time; Vr is a volume of the solution at the side of a donor; A is a surface area; and C0 is the initial concentration of the solution at the side of the donor.
On the technique in general: Caco-2 cells form a polarised layer with tight junctions and transporters.

Molecules are shown by their SMILES. Read-outs that look alike come from different tables or passages of the source.

Take `CCCCN1C(=O)C(CC(C)C)NC(=O)C12CCN(Cc1c(C)nn(-c3ccccc3)c1C)CC2` (stereo not shown) [Compound 3(1)]: the “AUC increase in the presence of ketoconazole versus absence” value in series [1] is recorded as “about 4 times”. Also, the AUC at 4 h in series [1] (ketoconazole 50 mg/kg intraperitoneally one hour before, read-out: AUC in the presence of ketoconazole (converted)) was 4350 ng·h/mL. Also, the AUC at 4 h in series [1] (no ketoconazole, read-out: AUC in the absence of ketoconazole (converted)) is 1020 ng·h/mL. Besides, in the series with CYP 3A4, the “Residual rate (%) Ketoconazole (+)” value is on record as 89.1% and the “Residual rate (%) Ketoconazole (-)” value was determined as 32.1%.
For the compound `CCCCN1C(=O)[C@H](CC2CCCCC2)NC(=O)C12CCN(Cc1ccc(Oc3ccc(C(=O)O)cc3)cc1)CC2` [Compound 40(70), (3S)-1-butyl-2,5-dioxo-3-cyclohexylmethyl-9-(4-(4-carboxyphenyloxy)phenylmethyl)-1,4,9-triazaspiro[5.5]undecane], in the series with CYP 3A4, the “Residual rate (%) Ketoconazole (+)” value turned out to be 104.0% and the “Residual rate (%) Ketoconazole (-)” value is reported as 28.2%.
Taken in the same sequence, the figures for `CCCCN1C(=O)[C@@H]([C@H](O)C2CCCCC2)NC(=O)C12CCN(Cc1c(C)nn(-c3ccc(C(=O)NC)cc3)c1C)CC2` [Compound 75(53), (3R)-1-butyl-2,5-dioxo-3-((1R)-1-hydroxy-1-cyctohexylmethyl)-9-(3,5-dimethyl-1-(4-methylaminocarbonylphenyl)pyrazol-4-ylmethyl)-1,4,9-triazaspiro[5.5]undecane] were 114.4% and 19.4%.
Turning to `CCCCN1C(=O)[C@@H]([C@H](O)C2CCCCC2)NC(=O)C12CCN(Cc1ccc(Oc3ccc(C(=O)O)cc3)cc1)CC2` [Compound 75(54), (3R)-1-butyl-2,5-dioxo-3-((1R)-1-hydroxy-1-cyclohexylmethyl)-9-(4-(4-carboxyphenyloxy)phenylmethyl)-1,4,9-triazaspiro[5.5]undecane], the “AUC increase in the presence of ketoconazole versus absence” value in series [1] is “about 3 times”. The “AUC increase in the presence of ketoconazole versus absence” value in series [2] came to 10 times. Further, in the series with CYP 3A4, the “Residual rate (%) Ketoconazole (+)” value was 95.3% and the “Residual rate (%) Ketoconazole (-)” value stood at 34.4%. In series [3] (test compound 10 mg/kg and amprenavir 10 mg/kg orally at the same time), the “AUC increase in the presence of amprenavir versus absence” value is recorded as 3.7 times. In series [3] (test compound 10 mg/kg and nelfinavir 10 mg/kg orally at the same time), the “AUC increase in the presence of nelfinavir versus absence” value came to 3.4 times. The “AUC increase in the presence of ritonavir versus absence” value in series [3] (test compound 10 mg/kg and ritonavir 10 mg/kg orally at the same time) is 7.7 times. The “AUC increase in the presence of saquinavir versus absence” value in series [3] (test compound 10 mg/kg and saquinavir 10 mg/kg orally at the same time) is listed as 1.7 times. In addition, in series [4], the “Permeability From blood vessel to lumen” value is listed as 34.3 µL/cm^2/hr and the “Permeability From lumen to blood vessel” value amounted to 2.06 µL/cm^2/hr. In addition, in series [5], the “Permeability From blood vessel to lumen” value is 18.8 µL/cm^2/hr and the “Permeability From lumen to blood vessel” value is 35.3 µL/cm^2/hr. Further, in the series on Caco-2 cells (Caco-2, 0.025% TPGS (+)), the “Permeation Coefficient From blood vessel to lumen” value was 13 cm/s and the “Permeation Coefficient From lumen to blood vessel” value is recorded as 10.5 cm/s. Further, in the series on Caco-2 cells (Caco-2, 0.025% TPGS (-)), the “Permeation Coefficient From blood vessel to lumen” value is 32.4 cm/s and the “Permeation Coefficient From lumen to blood vessel” value worked out at 3.42 cm/s.

The term AUC denotes concentration integrated over time.
